Experimental data published in patent publication US20100247503A1, “METHOD FOR OBTAINING A SOLID COMPOSITION WITH RHODOTORULA MINUTA, WHICH IS EFFECTIVE FOR THE BIOLOGICAL CONTROL OF ANTHRACNOSE, AND RESULTING COMPOSITION” (priority 2006, published 2010).

What was measured:
Assay type in all cases: in vivo
[1] = system: mango fruit (Mangifera indica) cv. Kent; assay: Assessing the quality of the fruit (weight loss, pH, titratable acidity, total soluble solids) during storage; conditions: 85% RH
Protocol: Assessing the quality of the fruit. Weight loss was assessed every third day by difference in weight with respect to the initial weight of the fruit, expressed as a percentage (Diaz-Pérez, 1998). The pH, titratable acidity (TA) and total soluble solids (TSS) were quantified according to the methodology proposed by the AOAC (1998) at 0, 6 and 12 days of storage. To determine the pH and acidity we used a Mettler automatic titrator (model DL-21) and the results were expressed in units of pH and percentage of citric acid, respectively. Total soluble solids were determined with a Leica Abbe Mark II type refractometer, temperature-compensated and previously calibrated with pure water. The results were expressed in Brix degrees (°Brix). For quality parameters, a fruit was selected as an experimental unit and five replications were used.
Statistical analysis. The study of the severity of the disease in mango fruits was analyzed using a completely randomized block design. Data from the evaluations of each treatment were subjected to unilateral variance analysis by Friedman ranges (p<0.05) using the SAS statistical system (SAS, 1998). The difference between treatments was determined by the Tukey test (p=0.05). For differences in the analysis of variance (ANOVA) of quality variables, the mediums were separated by Tukey multiple comparison test with a probability of error of 5%, using the Minitab statistical program version 13.1.
The same compositions presented in table 2 were used to study the effect of the application of biological control agents, subject of this invention, on the quality of mango fruit cv. Kent.

[2] = system: Colletotrichum gloeosporioides; assay: Field tests with solid dry compositions, pre-harvest application, severity of anthracnose on mango fruit; conditions: mango cv. Kent, mix 10^6+10^4 UFC/mL, Benomyl 0.5 g/L
Source text: (§1) Application of treatments in the field. To verify field effectiveness we used an eight-year old commercial mango orchard cv. Kent, located in El Rosario, Sinaloa, Mexico. We selected the trees homogeneously to distribute them for each treatment (three trees per treatment). In each treatment there was a monthly application (five in total), using a backpack pump sprinkler operated at 400 pounds of pressure. We started during flowering (February) until the harvest (June or July), spraying suspensions of fresh or dried cells (previously hydrated), produced in semi-industrial fermenters. We sprayed 7 L of cell suspension on each selected mango tree, until all the foliage was wet. As a control treatment, we sprayed 7 L of irrigation water.
(§2) Quantifying the severity of anthracnose. For each treatment, 100 mango fruits were harvested at physiological maturity (Báez et al., 1993), and were stored under simulated marketing conditions at 20° C. and 85% relative humidity. We evaluated the severity of the disease after a minimum of 15 days of storage, using the presence of symptoms as indicator of the disease (anthracnose) in the fruit. […]
(§3) Statistical analysis. The study of the severity of the disease in mango fruits was analyzed using a completely randomized block design. […] The difference between treatments was determined by the Tukey test (p=0.05). […]

[3] = system: Colletotrichum gloeosporioides; assay: Field tests with liquid compositions, pre-harvest application, severity of anthracnose on mango fruit; conditions: mango cv. Kent, five monthly pre-harvest sprays, fruit stored 15 days at 20° C., 85% RH, R. minuta 10^8, B. subtilis 10^6, mix 10^6+10^4 UFC/mL, Benomyl 0.5 g/L
Source text: as §1, §2, §3

In the case of `CCCCNC(=O)n1c(NC(=O)OC)nc2ccccc21` [Benomyl], the “Weight loss (%)” value ([1]; day 3 of storage at 20° C.) was 0.9 a %, the “Weight loss (%)” value ([1]; day 6 of storage at 20° C.) was 1.6 a % and the “Weight loss (%)” value ([1]; day 9 of storage at 20° C.) was 2.4 ab %. For the same compound, the “Weight loss (%)” value ([1]; day 12 of storage at 20° C.) was 3.4 ab %, the “Weight loss (%)” value ([1]; day 15 of storage at 20° C.) was 4.3 a % and the “Weight loss (%)” value ([1]; day 15 of storage at 20° C., listed as chemical treatment) was 4.3%. For the same compound, the “% severity” value [2] was 25.0 b %, the “% severity” value ([2]; listed as chemical treatment) was 36.2% and the “% of severity after 15 days of storage” value [3] was 41.7 b %. For the same compound, the “% of severity after 15 days of storage” value ([3]; listed as chemical treatment) was 41.7%.
